US20260365670A1, “EGFR INHIBITORS AND USES THEREOF” (DIZAL (JIANGSU) PHARMACEUTICAL CO., LTD., priority 2022, published 2026)
Read-outs that look alike come from different tables or passages of the source.

How the values were obtained:
A-431 = test: Cell proliferation GI50, A-431 cells (Table 6); format: cell-based; settings: A-431 cells
Method: [Worded in the source for another cell line; this cell line is reported under the same test.] Ba/F3 cells expressing EGFR mutations were seeded in 384-well plates at 5000 cells/well in RPMI1640 medium containing […]. PC-9 at 500 cells/well was seeded into 384-well plates in RPMI1640 medium with 10% FBS. After overnight incubation, the assay plates were dosed with compounds at a series of concentrations. Alongside dosing the assay plates, the day 0 plate was processed using CellTiter-Glo® Luminescent Cell Viability Assay (Promega) to measure the number of viable cells (G0). The assay plates were further incubated for 72 hours and the number of viable cells (G3) was measured. The percentage of proliferation was calculated as: […]=100×(G3 value of sample well−G0 value)/(G3 value of DMSO control−G0 value). The concentration of compound producing 50% proliferation inhibition (GI50) was further calculated in best-fit curves using XLFit software. N/A=not available.

PC-9 = test: Cell proliferation assay, PC-9 cells (CellTiter-Glo, 72 hours); format: cell-based; settings: PC9 cells
Summary of the method: (§1)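 Luminescent viable-cell counts were taken on a day 0 plate at dosing and again at endpoint. Proliferation was calculated as (sample − G0)/(DMSO − G0). Seeding was 5000 Ba/F3 or 500 PC-9 cells per well in RPMI1640, followed by overnight attachment and serial compound dilutions. The GI50 was fitted.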

[1] = test system: Ba/F3 cells expressing EGFR mutations; test: Cell proliferation assay, Ba/F3 cells expressing EGFR mutations (CellTiter-Glo, 72 hours); format: cell-based
Summary of the method: as §1

EGFR (d746-750 C797S) = target: T1, EGFR (d746-750 C797S) (Homo sapiens, UniProt P00533, C797S/DEL746-750); test: Inhibition of EGFR (d746-750 C797S) biochemical enzymatic activity (HTRF); settings: EGFR (d746-750 C797S), 1 mM ATP, 1 h at room temperature
T1 construct: purchased signalchem
Summary of the method: (§2)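 Time-resolved FRET assay of EGFR substrate phosphorylation. Conditions: 1 μM TK substrate-biotin, 1 mM ATP, Mg/Mn buffer, 1 h at RT. IC50 from 4-parameter curve fit.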

EGFR wild type = target: T2, EGFR wild type (Homo sapiens, UniProt P00533); test: Inhibition of EGFR wild type biochemical enzymatic activity (HTRF); settings: EGFR wild type, 1 mM ATP, 1 h at room temperature
T2 construct: purchased Carna Bio
Summary of the method: as §2

[2] = target: T3, EGFR[T790M/C797S/d746-750] (Homo sapiens, UniProt P00533, C797S/DEL746-750/T790M); test: Inhibition of EGFR[T790M/C797S/d746-750] biochemical enzymatic activity (HTRF); settings: 1 mM ATP, 1 h at room temperature
T3 construct: purchased Carna Bio
Summary of the method: as §2

EGFR Exon19Del/T790M = target: T4, EGFR Exon19Del/T790M (Homo sapiens, UniProt P00533, DEL746-750/T790M); test: Inhibition of EGFR Exon19Del/T790M biochemical enzymatic activity (HTRF); settings: EGFR Exon19Del/T790M, 1 mM ATP, 1 h at room temperature
T4 construct: purchased Carna Bio
Summary of the method: as §2

EGFR (C797S L858R) = target: T5, EGFR (C797S L858R) (Homo sapiens, UniProt P00533, C797S/L858R); test: Inhibition of EGFR (C797S L858R) biochemical enzymatic activity (HTRF); settings: EGFR (C797S L858R), 1 mM ATP, 1 h at room temperature
T5 construct: purchased signalchem
Summary of the method: as §2

EGFR[T790M/C797S/L858R] = target: T6, EGFR[T790M/C797S/L858R] (Homo sapiens, UniProt P00533, C797S/L858R/T790M); test: Inhibition of EGFR[T790M/C797S/L858R] biochemical enzymatic activity (HTRF); settings: EGFR[T790M/C797S/L858R], 1 mM ATP, 1 h at room temperature
T6 construct: purchased Carna Bio
Summary of the method: as §2

EGFR Exon19Del = target: T7, EGFR Exon19Del (Homo sapiens, UniProt P00533, DEL746-750); test: Inhibition of EGFR Exon19Del biochemical enzymatic activity (HTRF); settings: 1 mM ATP, 1 h at room temperature
T7 construct: purchased Carna Bio
Summary of the method: as §2

EGFR L858R = target: T8, EGFR L858R (Homo sapiens, UniProt P00533, L858R); test: Inhibition of EGFR L858R biochemical enzymatic activity (HTRF); settings: 1 mM ATP, 1 h at room temperature
T8 construct: purchased Carna Bio
Summary of the method: as §2

EGFR L858R/T790M = target: T9, EGFR L858R/T790M (Homo sapiens, UniProt P00533, L858R/T790M); test: Inhibition of EGFR L858R/T790M biochemical enzymatic activity (HTRF); settings: EGFR L858R/T790M, 1 mM ATP, 1 h at room temperature
T9 construct: purchased Carna Bio
Summary of the method: as §2

[3] = Homo sapiens, PC-9, 72 h, read-out: GI50 PC9
[4] = EGFR[T790M/C797S/d746-750], read-out: IC50 @T790M - C797S - Del19
[5] = read-out: IC50 @T790M- C797S - L858R
[6] = EGFR Exon19Del, read-out: IC50 @Del19
[7] = Mus musculus, BaF3, 72 h, BaF3 cells, EGFR DEL19 - C797S, read-out: GI50 DEL19 - C797S/BaF3
[8] = Mus musculus, BaF3, 72 h, BaF3 cells, EGFR DEL19 - T790-C797S, read-out: GI50 DEL19 - T790-C797S/BaF3
[9] = Mus musculus, BaF3, 72 h, BaF3 cells, EGFR L858R - C797S, read-out: GI50 L858R - C797S/BaF3
[10] = Mus musculus, BaF3, 72 h, BaF3 cells, EGFR L858R - T790-C797S, read-out: GI50 L858R - T790-C797S/BaF3
[11] = Mus musculus, BaF3, 72 h, BaF3 cells, EGFR L858R - T790M, read-out: GI50 L858R - T790M/BaF3
[12] = Mus musculus, BaF3, 72 h, BaF3 cells, EGFR L858R, read-out: GI50 L858R/BaF3
[13] = Mus musculus, BaF3, 72 h, EGFR DEL19 - T790M, read-out: GI50 DEL19 - T790M

T9 sequence (P00533 25-1210 T790M/L858R): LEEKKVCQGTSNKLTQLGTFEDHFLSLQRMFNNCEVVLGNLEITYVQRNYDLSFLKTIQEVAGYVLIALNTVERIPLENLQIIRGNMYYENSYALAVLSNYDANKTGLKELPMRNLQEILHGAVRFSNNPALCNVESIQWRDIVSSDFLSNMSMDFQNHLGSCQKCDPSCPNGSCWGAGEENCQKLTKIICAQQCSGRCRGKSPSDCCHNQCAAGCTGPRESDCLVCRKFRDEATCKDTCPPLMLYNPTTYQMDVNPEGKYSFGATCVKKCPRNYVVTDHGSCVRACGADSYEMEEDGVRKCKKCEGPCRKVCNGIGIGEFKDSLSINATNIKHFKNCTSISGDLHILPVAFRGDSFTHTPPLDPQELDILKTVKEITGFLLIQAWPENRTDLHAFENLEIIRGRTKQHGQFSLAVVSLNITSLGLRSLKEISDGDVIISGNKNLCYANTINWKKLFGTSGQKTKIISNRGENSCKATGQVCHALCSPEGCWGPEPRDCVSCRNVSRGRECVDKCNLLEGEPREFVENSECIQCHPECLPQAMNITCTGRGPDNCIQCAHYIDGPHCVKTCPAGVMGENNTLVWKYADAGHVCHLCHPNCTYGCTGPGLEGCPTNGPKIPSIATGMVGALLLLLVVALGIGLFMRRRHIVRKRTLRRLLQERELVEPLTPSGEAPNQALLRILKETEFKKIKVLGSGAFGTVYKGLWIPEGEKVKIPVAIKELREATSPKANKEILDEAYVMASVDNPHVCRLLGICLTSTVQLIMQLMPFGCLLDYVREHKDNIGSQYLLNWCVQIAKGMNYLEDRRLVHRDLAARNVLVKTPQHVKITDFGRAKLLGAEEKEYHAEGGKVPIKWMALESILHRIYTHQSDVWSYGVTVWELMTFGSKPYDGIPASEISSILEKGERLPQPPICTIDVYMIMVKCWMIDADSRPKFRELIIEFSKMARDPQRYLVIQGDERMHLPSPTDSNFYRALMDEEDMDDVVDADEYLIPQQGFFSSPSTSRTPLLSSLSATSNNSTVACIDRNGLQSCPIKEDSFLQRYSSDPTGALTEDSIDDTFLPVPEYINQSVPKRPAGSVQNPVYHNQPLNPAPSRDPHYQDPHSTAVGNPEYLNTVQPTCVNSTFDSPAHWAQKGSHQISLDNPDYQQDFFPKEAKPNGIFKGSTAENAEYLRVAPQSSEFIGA
T2 sequence (P00533 25-1210): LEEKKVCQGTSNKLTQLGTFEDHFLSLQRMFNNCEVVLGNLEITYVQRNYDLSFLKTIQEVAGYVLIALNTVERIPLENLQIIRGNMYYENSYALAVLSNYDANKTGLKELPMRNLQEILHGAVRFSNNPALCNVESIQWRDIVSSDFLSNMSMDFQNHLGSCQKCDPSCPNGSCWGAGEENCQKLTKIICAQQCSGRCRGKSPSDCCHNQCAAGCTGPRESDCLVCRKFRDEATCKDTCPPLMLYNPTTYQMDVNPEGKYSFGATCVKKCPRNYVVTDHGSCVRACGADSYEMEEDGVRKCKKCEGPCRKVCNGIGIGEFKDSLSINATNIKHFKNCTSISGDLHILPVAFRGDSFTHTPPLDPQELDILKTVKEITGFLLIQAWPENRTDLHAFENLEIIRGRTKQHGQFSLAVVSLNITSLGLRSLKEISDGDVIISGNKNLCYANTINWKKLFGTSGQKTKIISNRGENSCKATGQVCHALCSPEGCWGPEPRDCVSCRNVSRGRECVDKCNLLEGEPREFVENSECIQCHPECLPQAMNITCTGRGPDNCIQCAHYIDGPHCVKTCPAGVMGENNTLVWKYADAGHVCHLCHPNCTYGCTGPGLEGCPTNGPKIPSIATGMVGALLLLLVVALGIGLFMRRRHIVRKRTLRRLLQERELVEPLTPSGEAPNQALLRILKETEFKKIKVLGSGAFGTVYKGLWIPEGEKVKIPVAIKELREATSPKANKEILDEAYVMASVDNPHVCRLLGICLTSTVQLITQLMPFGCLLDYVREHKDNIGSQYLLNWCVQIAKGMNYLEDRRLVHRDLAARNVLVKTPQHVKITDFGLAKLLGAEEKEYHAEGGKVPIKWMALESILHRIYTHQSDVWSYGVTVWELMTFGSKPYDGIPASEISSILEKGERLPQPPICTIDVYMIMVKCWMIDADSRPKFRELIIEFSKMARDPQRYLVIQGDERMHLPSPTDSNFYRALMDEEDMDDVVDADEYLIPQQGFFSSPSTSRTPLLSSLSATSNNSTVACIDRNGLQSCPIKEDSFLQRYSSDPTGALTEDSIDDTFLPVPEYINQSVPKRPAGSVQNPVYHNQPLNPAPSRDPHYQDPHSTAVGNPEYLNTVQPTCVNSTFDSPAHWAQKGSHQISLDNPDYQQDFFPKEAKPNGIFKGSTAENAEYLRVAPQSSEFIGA
T1 sequence (P00533 with tags, fused parts or gaps DEL746-750/C797S limits assumed): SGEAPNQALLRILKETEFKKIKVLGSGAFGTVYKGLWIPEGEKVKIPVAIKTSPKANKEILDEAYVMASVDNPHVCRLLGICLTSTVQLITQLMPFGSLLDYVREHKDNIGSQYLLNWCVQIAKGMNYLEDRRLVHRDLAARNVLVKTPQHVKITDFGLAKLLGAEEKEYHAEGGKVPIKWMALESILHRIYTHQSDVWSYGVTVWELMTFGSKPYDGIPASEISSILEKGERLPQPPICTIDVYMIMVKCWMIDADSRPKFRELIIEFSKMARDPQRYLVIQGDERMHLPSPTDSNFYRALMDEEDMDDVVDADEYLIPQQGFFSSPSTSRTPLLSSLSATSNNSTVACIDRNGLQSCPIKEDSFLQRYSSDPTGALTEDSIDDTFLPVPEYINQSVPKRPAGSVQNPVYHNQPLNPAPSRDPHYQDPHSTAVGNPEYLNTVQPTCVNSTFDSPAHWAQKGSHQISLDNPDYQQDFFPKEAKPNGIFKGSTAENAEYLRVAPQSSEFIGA
T8 sequence (P00533 25-1210 L858R): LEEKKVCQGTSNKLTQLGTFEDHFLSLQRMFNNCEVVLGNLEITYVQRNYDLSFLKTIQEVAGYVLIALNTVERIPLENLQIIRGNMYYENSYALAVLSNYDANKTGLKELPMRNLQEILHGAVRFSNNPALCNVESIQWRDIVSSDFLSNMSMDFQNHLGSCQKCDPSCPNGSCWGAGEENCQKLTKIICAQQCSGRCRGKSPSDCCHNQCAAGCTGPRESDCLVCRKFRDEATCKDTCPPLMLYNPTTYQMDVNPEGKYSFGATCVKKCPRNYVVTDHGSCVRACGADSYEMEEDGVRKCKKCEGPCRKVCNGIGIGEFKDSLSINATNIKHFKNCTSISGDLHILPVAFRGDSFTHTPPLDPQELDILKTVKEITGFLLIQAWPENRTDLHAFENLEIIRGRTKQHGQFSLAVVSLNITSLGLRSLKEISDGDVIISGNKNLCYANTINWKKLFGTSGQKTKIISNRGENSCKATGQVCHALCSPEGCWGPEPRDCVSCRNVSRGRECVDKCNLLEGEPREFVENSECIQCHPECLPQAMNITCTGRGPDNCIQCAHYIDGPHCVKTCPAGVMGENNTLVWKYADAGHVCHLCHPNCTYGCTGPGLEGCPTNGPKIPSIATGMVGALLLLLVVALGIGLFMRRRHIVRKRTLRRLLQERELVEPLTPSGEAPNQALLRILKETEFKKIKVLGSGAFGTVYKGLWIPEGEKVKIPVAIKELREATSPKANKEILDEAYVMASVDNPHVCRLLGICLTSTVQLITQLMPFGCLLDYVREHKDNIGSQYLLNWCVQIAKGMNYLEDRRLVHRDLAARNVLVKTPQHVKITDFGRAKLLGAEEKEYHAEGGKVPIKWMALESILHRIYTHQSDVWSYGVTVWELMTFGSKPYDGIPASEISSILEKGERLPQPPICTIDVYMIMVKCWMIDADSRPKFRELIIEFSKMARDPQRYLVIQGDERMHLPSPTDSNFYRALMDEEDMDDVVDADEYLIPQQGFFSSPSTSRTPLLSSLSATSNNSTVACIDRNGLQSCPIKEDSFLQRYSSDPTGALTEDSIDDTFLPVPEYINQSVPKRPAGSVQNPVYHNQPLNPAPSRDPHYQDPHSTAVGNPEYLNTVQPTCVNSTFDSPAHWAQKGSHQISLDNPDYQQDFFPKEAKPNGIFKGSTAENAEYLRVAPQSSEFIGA
T7 sequence (P00533 with tags, fused parts or gaps DEL746-750 limits assumed): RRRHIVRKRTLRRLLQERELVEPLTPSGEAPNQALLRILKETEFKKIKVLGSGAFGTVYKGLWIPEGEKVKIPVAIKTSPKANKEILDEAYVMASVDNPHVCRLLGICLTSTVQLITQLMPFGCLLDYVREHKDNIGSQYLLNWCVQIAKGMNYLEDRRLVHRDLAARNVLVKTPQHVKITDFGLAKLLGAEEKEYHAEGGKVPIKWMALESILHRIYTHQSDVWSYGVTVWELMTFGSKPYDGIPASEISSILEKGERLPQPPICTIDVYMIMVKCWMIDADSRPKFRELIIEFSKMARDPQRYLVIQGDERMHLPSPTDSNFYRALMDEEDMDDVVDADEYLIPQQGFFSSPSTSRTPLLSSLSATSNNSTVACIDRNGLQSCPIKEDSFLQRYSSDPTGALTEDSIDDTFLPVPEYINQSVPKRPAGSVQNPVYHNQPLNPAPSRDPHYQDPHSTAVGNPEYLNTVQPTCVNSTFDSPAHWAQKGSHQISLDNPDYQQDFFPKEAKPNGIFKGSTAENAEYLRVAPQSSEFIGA

Row | SMILES | IC50 (EGFR (d746-750 C797S); read-out: IC50 @Del19-C797S) | GI50 (PC-9; [3]) | IC50 (EGFR wild type; read-out: IC50 @WT) | IC50 [2, 4] | IC50 (EGFR Exon19Del/T790M; read-out: IC50 @Del19-T790M) | IC50 (EGFR (C797S L858R); read-out: IC50 @L858-C797S) | IC50 (EGFR[T790M/C797S/L858R]; [5]) | IC50 (EGFR Exon19Del; [6]) | IC50 (EGFR L858R; read-out: IC50 @L858R) | GI50 [1, 7] | GI50 [1, 8] | GI50 [1, 9] | GI50 [1, 10] | GI50 [1, 11] | GI50 [1, 12] | GI50 [1, 13] | IC50 (EGFR L858R/T790M; read-out: IC50 @L858R-T790M) | further results
1 | CN1CCN(C2CN(c3ccc4nc5n(c4c3)C34CCC(CN(CCOc6c(cnn6C)-c6cc(cn(C)c6=O)C(=O)N5)C3)C4)C2)CC1 (single isomer, unassigned) [Example A70A] | – | – | – | – | – | – | – | – | – | – | – | – | – | – | – | – | – | GI50 (A-431): 3100 nM; GI50 (PC-9; CellTiter-Glo, read-out: PC9 GI50): 554 nM; GI50 ([1]; BaF3 cells, EGFR DEL19-C797S, CellTiter-Glo, read-out: DEL19-C797S/BaF3 GI50): 188 nM; GI50 ([1]; BaF3 cells, EGFR DEL19-T790-C797S, CellTiter-Glo, read-out: DEL19-T790-C797S/BaF3 GI50): 411 nM; GI50 ([1]; BaF3 cells, EGFR L858R, CellTiter-Glo, read-out: L858R/BaF3 GI50): 603 nM; GI50 ([1]; BaF3 cells, EGFR L858R-C797S, CellTiter-Glo, read-out: L858R-C797S/BaF3 GI50): 452 nM; GI50 ([1]; BaF3 cells, EGFR L858R-T790-C797S, CellTiter-Glo, read-out: L858R-T790-C797S/BaF3 GI50): 463 nM; GI50 ([1]; BaF3 cells, EGFR L858R-T790M, CellTiter-Glo, read-out: L858R-T790M/BaF3 GI50): 1870 nM; GI50 ([1]; EGFR DEL19-T790M, CellTiter-Glo, read-out: DEL19-T790M GI50): 517 nM
2 | Cc1cc2cc(n1)-c1cnn(C)c1OCCCCCn1c(nc3ccn(C)c(=O)c31)NC2=O [Example B20, 5,16,26-Trimethyl-7-oxa-4,5,13,16,20,22,27-heptaazapentacyclo[22.3.1.0^{2,6}.0^{13,21}.0^{14,19}]octacosa-1(27),2(6),3,14(19),17,20,24(28),25-octaene-15,23-dione] | > 5000 nM | 1280 nM | > 5000 nM | 122 nM | 685 nM | > 5000 nM | > 5000 nM | > 5000 nM | > 5000 nM | 487 nM | 258 nM | 10000 nM | 159 nM | 1020 nM | 2040 nM | 331 nM | > 5000 nM | –
3 | Cc1cc2cc(n1)-c1cnn(C)c1OCCCCCn1c(nc3ccc4c(c31)CCN(CCN(C)C)C4)NC2=O [Example B23, 18-[2-(Dimethylamino)ethyl]-5,30-dimethyl-7-oxa-4,5,13,18,24,26,31-heptaazahexacyclo[26.3.1.0^{2,6}.0^{13,25}.0^{14,23}.0^{15,20}]dotriaconta-1(31),2(6),3,14,20,22,24,28(32),29-nonaen-27-one] | – | 113 nM | – | – | – | – | – | – | – | 22 nM | 15 nM | 195 nM | 5.9 nM | – | 442 nM | 7.2 nM | – | IC50 (EGFR (d746-750 C797S); IC50 @Del19-C797S): 6.5 nM; IC50 (EGFR wild type; IC50 @WT): > 5000 nM; IC50 ([2]; IC50 @T790M - C797S - Del19, EGFR[T790M/C797S/d746-750]): 2.5 nM; IC50 (EGFR Exon19Del/T790M; IC50 @Del19-T790M): 3.8 nM; IC50 (EGFR (C797S L858R); IC50 @L858-C797S): 73 nM; IC50 (EGFR[T790M/C797S/L858R]; IC50 @T790M- C797S - L858R): 5.4 nM; IC50 (EGFR Exon19Del; IC50 @Del19, EGFR Exon19Del): 16 nM; IC50 (EGFR L858R; IC50 @L858R): > 5000 nM; IC50 (EGFR L858R/T790M; IC50 @L858R-T790M): 12 nM
4 | Cc1cc2cc(n1)-c1cnn(C)c1OCCN1CC3CCC(CC3)(C1)n1c(nc3ccc(N4CC[C@@H](N(C)C)C4)cc31)NC2=O [Example B29] | 28 nM | 155 nM | > 5000 nM | 8.6 nM | 17 nM | 204 nM | 13 nM | 45 nM | 352 nM | 26 nM | 9 nM | 171 nM | 19 nM | 37 nM | 149 nM | 11 nM | 28 nM | –
